Converted amounts (≈) assume the structure as drawn. Where a SMILES comes first, the peptide text is derived from it.

Test [1] has as its system Bacillus subtilis BGSC1A2. Put plainly: microbe, parasite or virus in culture. As to the method:
Microbroth dilution assays were performed as described in NCCLS M7-A5 (Vol. 20, No. 2). The assay was performed in a sterile 96 well plate, and the total volume per well was 100 μl. […] The inoculum was prepared by culturing Bacillus subtilis BGSC1A2 overnight in MHB medium at 35° C. with shaking at 200 rpm. The following day 0.5 ml of the overnight culture was used to inoculate MHB medium to obtain a culture in logarithmic phase growth as described in NCCLS M7-A5 (Vol. 20, No. 2) and M26-A (Vol. 19, No. 18). The actual colony forming units per well was confirmed by plating onto TSA or LB agar. Two wells were inoculated for a given concentration. The plates were incubated for 16 to 20 hours at 35° C. The MIC was defined as that concentration of antibiotic resulting in no visible growth of the organism.

For test [2], the system named is Bacillus subtilis strain BGSC1A2. Put plainly: Growth curve (optical density at 600 nm) of shake flask cultures treated with sub-inhibitory antibiotic concentrations. As to conditions: for growth rate as measured by optical density at 600 nm: all sub-inhibitory concentrations tested (Table 3), versus untreated cultures. In kind it is cell-based. The procedure:
Bacillus subtilis strain BGSC1A2 was streaked onto a LB agar plate and incubated overnight at 37° C. The cultured plate was stored at room temperature for up to one week. Fifty ml of MHB medium in a 250 ml flask was inoculated with one colony from the plate. The culture was incubated overnight at 37° C. and 200 rpm.
A 30.7 ml sample of the overnight culture was used to inoculate 3.6 liters of MHB medium pre-warmed at 37° C. After mixing the culture well, 600 ml aliquots were removed and placed into each of six 2.8 liter baffled shake flasks. A 1 ml sample of each flask was taken for optical density measurement at 600 nm, and the shake flasks were incubated at 37° C. and 200 rpm. One ml samples were taken from each flask every 30 minutes until the OD600 reached 0.2. At this point, which was designated time zero, 100 ml samples from each shake flask were taken, and 50 ml aliquots were placed in each of two 50 ml centrifuge tubes. In addition, 1.1 ml aliquots were taken from each flask with 1 ml used for an optical density measurement at 600 nm and 50 μl of each was placed in a microfuge tube at 4° C. The 50 ml samples were processed immediately by centrifugation at 4000 rpm at 4° C. for 7 minutes, and after centrifugation the supernatant was decanted being careful not to disturb the pellet which was immediately placed at −80° C. for total RNA isolation at a later time.
At time zero, different sub-inhibitory concentrations (0.1-1×MIC) of a given antibiotic were added to three of the shake flasks (Table 2) and the other three shake flasks were untreated. The shake flasks were incubated at 37° C. and 200 rpm. At times 5, 15, 30 and 60 minutes after antibiotic addition, 100 ml and 1.1 ml samples were taken from each shake flask and processed as described above. After the 60 minute time point, 1.1 ml aliquots from each shake flask were taken every hour for four hours for optical density and cell viability measurements.

For test [3] the test system is unchanged. The test is described as follows: Cell viability (colony forming units per ml) of cultures treated with sub-inhibitory antibiotic concentrations. In kind it is cell-based. The conditions noted are these: for colony forming units or viability: all sub-inhibitory concentrations tested (Table 3), versus untreated cultures. As to the method: […] The shake flasks were incubated at 37° C. and 200 rpm. At times 5, 15, 30 and 60 minutes after antibiotic addition, 100 ml and 1.1 ml samples were taken from each shake flask and processed as described above. After the 60 minute time point, 1.1 ml aliquots from each shake flask were taken every hour for four hours for optical density and cell viability measurements.
Cell viability was determined on all the samples by determining colony forming units per ml. Samples collected were diluted in MHB to obtain 10 to 500 colonies per plate as follows: samples collected at t=0 were diluted at 1:100,000; t=5 minutes, dilution was 1:150,000; t=15 minutes, dilution was 1:200,000; t=30 minutes, dilution was 1:250,000; t=1 hour, dilution was 1:300,000; t=1.5 hours, dilution was 1:400,000; t=2.5 hours, dilution was 1:800,000; and t=3.5 hours, dilution was 1:1,000,000. These dilutions factors can be changed as indicated by the response to the antibiotic being tested. For each diluted sample 20 μl and 40 μl aliquots were spread onto each of two pre-warmed LB agar plates, which were incubated overnight at 37° C. The number of colonies on each plate was counted to determine the colony forming units per ml of each sample.

The test system is the same in test [4]. The test is described as follows: Growth curve (optical density at 600 nm) of shake flask cultures treated with sub-inhibitory antibiotic concentrations. The conditions noted are these: 0.01 and 0.02 x MIC (0.0025 and 0.005 μg/ml). In kind it is cell-based.

Turning to `CC(=O)OCC1=C(C(=O)O)N2C(=O)[C@@H](NC(=O)Cc3cccs3)[C@H]2SC1` [cephalothin], in test [1] (Bacillus subtilis, BGSC1A2), the MIC is 0.0156 to 0.0625 µg/mL (≈ 0.0393 to 0.158 µM). Also, the “growth rate as measured by optical density” value is given as “very little effect, if any” in test [2] (0.00156 μg/ml (0.1 x MIC)); “moderate decrease” in test [2] (0.0078 μg/ml (0.50 x MIC)); “large” in test [2] (0.0156 μg/ml (1.0 x MIC)). For the same molecule, the “colony forming units or viability” value in test [3] is “decrease in colony forming units or viability”.

Turning to `O=C(N[C@H](CO)[C@H](O)c1ccc([N+](=O)[O-])cc1)C(Cl)Cl` [chloramphenicol], in test [1] (Bacillus subtilis, BGSC1A2), the MIC lay in the range of 2 to 4 µg/mL (≈ 6.19 to 12.4 µM).

Turning to `O=C(O)c1cn(C2CC2)c2cc(N3CCNCC3)c(F)cc2c1=O` [ciprofloxacin], the “colony forming units or viability” value in test [3] is “decrease in colony forming units or viability”.

In the case of `CC[C@H]1OC(=O)[C@H](C)[C@@H](O[C@H]2C[C@@](C)(OC)[C@@H](O)[C@H](C)O2)[C@H](C)[C@@H](O[C@@H]2O[C@H](C)C[C@H](N(C)C)[C@H]2O)[C@](C)(O)C[C@@H](C)C(=O)[C@H](C)[C@@H](O)[C@]1(C)O` [erythromycin], in test [1] (Bacillus subtilis, BGSC1A2), the MIC was 0.125 to 0.25 µg/mL (≈ 0.17 to 0.341 µM). For the same molecule, the “growth rate as measured by optical density at 600 nm” value (“growth rate as measured … at 600 nm” below) in test [2] is “decrease in growth rate that was dose dependent”. In test [3], the “colony forming units or viability” value is reported as “decrease in colony forming units or viability”.

As to `CC(C)C[C@@H](NC(=O)[C@H](C)NC(=O)CNC(=O)[C@@H](NC=O)C(C)C)C(=O)N[C@@H](C)C(=O)N[C@@H](C(=O)N[C@H](C(=O)N[C@@H](C(=O)N[C@@H](Cc1c[nH]c2ccccc12)C(=O)N[C@H](CC(C)C)C(=O)N[C@@H](Cc1c[nH]c2ccccc12)C(=O)N[C@H](CC(C)C)C(=O)N[C@@H](Cc1c[nH]c2ccccc12)C(=O)N[C@H](CC(C)C)C(=O)N[C@@H](Cc1c[nH]c2ccccc12)C(=O)NCCO)C(C)C)C(C)C)C(C)C` [gramicidin A] (HELM PEPTIDE1{[O=C[*:2]].V.G.A.[dL].A.[dV].V.[dV].W.[dL].W.[dL].W.[dL].W.[OCCN[*:1]]}$$$$V2.0; N-terminus and C-terminus assumed), in test [1] (BGSC1A2), the MIC was 8.0 µg/mL (≈ 4.25 µM).

In test [1] (Bacillus subtilis, BGSC1A2), `CCn1cc(C(=O)O)c(=O)c2ccc(C)nc21` [nalidixic acid] had an MIC of 4 µg/mL (≈ 17.2 µM).

In test [1] (Bacillus subtilis, BGSC1A2), `CCn1cc(C(=O)O)c(=O)c2cc(F)c(N3CCNCC3)cc21` [norfloxacin] gave an MIC of 0.5 µg/mL (≈ 1.57 µM). Besides, in test [2], the “growth rate as measured … at 600 nm” value is reported as “very little effect, if any”. Moreover, in test [3], the “colony forming units or viability” value is “decrease in colony forming units or viability”.

On to `CO[C@@H]1[C@@H](OC(N)=O)[C@@H](O)[C@H](Oc2ccc3c(O)c(NC(=O)c4ccc(O)c(CC=C(C)C)c4)c(=O)oc3c2C)OC1(C)C` [novobiocin], for which the MIC in test [1] (Bacillus subtilis, BGSC1A2) amounted to 2 µg/mL (≈ 3.26 µM).

`CO[C@H]1/C=C/O[C@@]2(C)Oc3c(C)c(O)c4c(O)c(c(/C=N/N5CCN(C)CC5)c(O)c4c3C2=O)NC(=O)/C(C)=C\C=C\[C@H](C)[C@H](O)[C@@H](C)[C@@H](O)[C@@H](C)[C@H](OC(C)=O)[C@@H]1C` [rifampin] yielded an MIC in test [1] (Bacillus subtilis, BGSC1A2) of 0.25 to 0.5 µg/mL (≈ 0.304 to 0.608 µM). For the same molecule, in test [3] (0.01 or 0.02 x MIC (0.0025 and 0.005 μg/ml)), the colony forming units result is given as “no effect on colony forming units”. Moreover, the “growth rate as measured by optical density” value in test [4] is on record as “very little effect if any”.

Consider `[H]/N=C(/N)N[C@H]1[C@H](O)[C@@H](O)[C@H](O[C@@H]2O[C@@H](C)[C@](O)(C=O)[C@H]2O[C@@H]2O[C@@H](CO)[C@H](O)[C@@H](O)[C@@H]2NC)[C@@H](N/C(N)=N\[H])[C@@H]1O` [streptomycin], for which the MIC in test [1] (Bacillus subtilis, BGSC1A2) was 4 to 8 µg/mL (≈ 6.88 to 13.8 µM). For the same molecule, the “growth rate as measured by optical density” value in test [2] (0.8 μg/ml (0.1 x MIC)) is given as “growth rate similar to the untreated cultures”; in test [2] (4.0 μg/ml (0.50 x MIC)), “moderate decrease in growth rate”; in test [2] (8.0 μg/ml (1.0 x MIC)) it was “large”. Besides, in test [3], the “colony forming units or viability” value was “decrease in colony forming units or viability”.

In test [1] (Bacillus subtilis, BGSC1A2), `COc1cc(Cc2cnc(N)nc2N)cc(OC)c1OC` [trimethoprim] displayed an MIC of 0.25 µg/mL (≈ 0.861 µM). Further, the “growth rate as measured … at 600 nm” value in test [2] is on record as “did not have an effect on growth rate”. Moreover, the “colony forming units or viability” value in test [3] is listed as “did not lead to a change in colony forming units or viability”.

`CN[C@H](CC(C)C)C(=O)N[C@H]1C(=O)N[C@@H](CC(N)=O)C(=O)N[C@H]2C(=O)N[C@H]3C(=O)N[C@H](C(=O)N[C@H](C(=O)O)c4cc(O)cc(O)c4-c4cc3ccc4O)[C@H](O)c3ccc(c(Cl)c3)Oc3cc2cc(c3O[C@@H]2O[C@H](CO)[C@@H](O)[C@H](O)[C@H]2O[C@H]2C[C@](C)(N)[C@H](O)[C@H](C)O2)Oc2ccc(cc2Cl)[C@H]1O` [vancomycin] displayed an MIC in test [1] (Bacillus subtilis, BGSC1A2) of 0.125 to 0.25 µg/mL (≈ 0.0863 to 0.173 µM). The “growth rate as measured … at 600 nm” value in test [2] is given as “very little effect, if any”. Also, in test [3], the “colony forming units or viability” value is reported as “no effect on viability”.

In test [1] (no visible growth after 16 to 20 hours at 35° C., MHB medium), gentamicin displayed an MIC of 0.125 to 0.25 µg/mL. Besides, the “growth rate as measured … at 600 nm” value in test [2] is recorded as “very little effect if any”. In test [3], the “colony forming units or viability” value is on record as “decrease in colony forming units or viability”.

munumbicin B: in test [3], the “colony forming units or viability” value is on record as “decrease in colony forming units or viability”.

Source of the values: patent publication US20050074844A1, “Methods for identifying markers of antimicrobial compounds” (priority 2002, published 2005).
